Test results: ChEMBL document CHEMBL2375306, “Antimicrobial peptides containing unnatural amino acid exhibit potent bactericidal activity against ESKAPE pathogens” (Bioorg Med Chem, 2013)
Values after ≈ are worked out from the molar mass of the structure shown. Square brackets hold non-standard residues; d marks the D form. Peptide text beside a SMILES is read from it. * marks the point of attachment. ξ: configuration not given here. X2 = NCCCC[C@H](NC(=O)[C@H](CCCCN)NC(=O)[C@H](CCCCN)NC(=O)[C@H](CCCCN)NCCCCCC(=O)[C@@H]1Cc2ccccc2CN1*)C(N)=O; X6 = NCCCC[C@H](NC(=O)[C@H](CCCCN)NC(=O)[C@H](CCCCN)NC(=O)[C@H](CCCCN)NCCC(=O)[C@@H]1Cc2ccccc2CN1*)C(N)=O; Pro(3ξ,4ξ-(CH2)4) = O=C(O)[C@H]1NCC2CCCCC21; Phe(4-F) = N[C@@H](Cc1ccc(F)cc1)C(=O)O; Tic = O=C(O)[C@@H]1Cc2ccccc2CN1; X1 = CC(=O)NC(=O)[C@H](CN)N*; ξE = NC(CCC(=O)O)C(=O)O; Dap = NC[C@H](N)C(=O)O; ξL = CC(C)CC(N)C(=O)O; GABA = NCCCC(=O)O; βAla = NCCC(=O)O

Columns and labels:
Assay type in all cases: functional
Enterococcus faecium = assay: Antibacterial activity against Enterococcus faecium MMC4 after 24 hrs by broth microdilution method; conditions: MMC4, 24 h
Klebsiella aerogenes = assay: Antibacterial activity against Enterobacter aerogenes after 24 hrs by broth microdilution method
Pseudomonas aeruginosa = assay: Antibacterial activity against Pseudomonas aeruginosa PAO1 after 24 hrs by broth microdilution method; conditions: PAO1, 24 h
Klebsiella pneumoniae = assay: Antibacterial activity against Klebsiella pneumoniae BAMS clinical isolate 07-18 after 24 hrs by broth microdilution method; conditions: BAMS clinical isolate 07-18, 24 h
Acinetobacter baumannii = assay: Antibacterial activity against Acinetobacter baumannii WRAIR clinical isolate 13 after 24 hrs by broth microdilution method; conditions: WRAIR clinical isolate 13, 24 h
Staphylococcus aureus = assay: Antibacterial activity against methicillin-sensitive Staphylococcus aureus UAMS-1 after 24 hrs by broth microdilution method; conditions: UAMS-1, 24 h

| Compound | MBC (Enterococcus faecium) [µg/mL] | MIC (Enterococcus faecium) [µg/mL] | MBC (Klebsiella aerogenes) [µg/mL] | MIC (Klebsiella aerogenes) [µg/mL] | MBC (Pseudomonas aeruginosa) [µg/mL] | MIC (Pseudomonas aeruginosa) [µg/mL] | MBC (Klebsiella pneumoniae) [µg/mL] | MIC (Klebsiella pneumoniae) [µg/mL] | MBC (Acinetobacter baumannii) [µg/mL] | MIC (Acinetobacter baumannii) [µg/mL] | MBC (Staphylococcus aureus) [µg/mL] | MIC (Staphylococcus aureus) [µg/mL] |
| --- | --- | --- | --- | --- | --- | --- | --- | --- | --- | --- | --- | --- |
| CC(=O)N[C@@H](CCCCN)C(=O)N[C@@H](CCCCN)C(=O)N[C@@H](CCCCN)C(=O)N[C@@H](CCCCN)C(=O)NCC(=O)N[C@@H](Cc1ccccc1)C(=O)N1Cc2ccccc2C[C@H]1C(=O)N1CC2CCCCC2[C@H]1C(=O)NCC(=O)N[C@@H](CCCCN)C(=O)N1Cc2ccccc2C[C@H]1C(=O)N1CC2CCCCC2[C@H]1C(=O)NCC(=O)N[C@@H](Cc1ccccc1)C(=O)N1Cc2ccccc2C[C@H]1C(=O)N1CC2CCCCC2[C@H]1C(=O)NCC(=O)N[C@@H](CCCCN)C(=O)N1Cc2ccccc2C[C@H]1C(N)=O (stereo partly specified) (Ac-KKKKGF[Tic][Pro(3ξ,4ξ-(CH2)4)]GK[Tic][Pro(3ξ,4ξ-(CH2)4)]GF[Tic][Pro(3ξ,4ξ-(CH2)4)]GK[Tic]-NH2) | > 100 | 25 (≈ 10.2 µM) | > 100 | > 100 | > 100 | > 100 | 100 (≈ 41 µM) | 100 (≈ 41 µM) | 25 (≈ 10.2 µM) | 12.5 (≈ 5.12 µM) | > 100 | > 100 |
| CC(=O)NCC(=O)N[C@@H](Cc1ccccc1)C(=O)N1Cc2ccccc2C[C@H]1C(=O)N1CC2CCCCC2[C@H]1C(=O)NCC(=O)N[C@@H](CCCCN)C(=O)N1Cc2ccccc2C[C@H]1C(=O)N1CC2CCCCC2[C@H]1C(=O)NCC(=O)N[C@@H](Cc1ccccc1)C(=O)N1Cc2ccccc2C[C@H]1C(=O)N1CC2CCCCC2[C@H]1C(=O)NCC(=O)N[C@@H](CCCCN)C(=O)N1Cc2ccccc2C[C@H]1C(=O)CCCCCN[C@@H](CCCCN)C(=O)N[C@@H](CCCCN)C(=O)N[C@@H](CCCCN)C(=O)N[C@@H](CCCCN)C(N)=O (stereo partly specified) (Ac-GF[Tic][Pro(3ξ,4ξ-(CH2)4)]GK[Tic][Pro(3ξ,4ξ-(CH2)4)]GF[Tic][Pro(3ξ,4ξ-(CH2)4)]GK-X2) | > 100 | 25 (≈ 9.96 µM) | > 100 | 100 (≈ 39.8 µM) | > 100 | 100 (≈ 39.8 µM) | 100 (≈ 39.8 µM) | 100 (≈ 39.8 µM) | 25 (≈ 9.96 µM) | 12.5 (≈ 4.98 µM) | > 100 | 100 (≈ 39.8 µM) |
| CSCC[C@H](NC(=O)C(CC(C)C)NC(=O)[C@H](CCC(=O)O)NC(=O)[C@@H]1C2CCCCC2CN1C(=O)[C@@H]1Cc2ccccc2CN1C(=O)[C@H](CCCCN)NC(=O)CNC(=O)[C@H](CC(C)C)NC(=O)CNC(=O)[C@@H]1C2CCCCC2CN1C(=O)[C@@H]1Cc2ccccc2CN1C(=O)C(CCC(=O)O)NC(=O)[C@H](CCCCN)NC(=O)CNC(=O)[C@H](CC(C)C)NC(=O)CNC(=O)[C@@H]1C2CCCCC2CN1C(=O)[C@@H]1Cc2ccccc2CN1C(=O)[C@H](CCCCN)NC(=O)CNC(C)=O)C(=O)NCC(=O)N[C@@H](CCC(=O)O)C(=O)N[C@@H](CCCNC(=N)N)C(N)=O (stereo partly specified) (Ac-GK[Tic][Pro(3ξ,4ξ-(CH2)4)]GLGK[ξE][Tic][Pro(3ξ,4ξ-(CH2)4)]GLGK[Tic][Pro(3ξ,4ξ-(CH2)4)]E[ξL]MGER-NH2) | > 100 | > 100 | > 100 | > 100 | > 100 | > 100 | > 100 | > 100 | > 100 | > 100 | > 100 | > 100 |
| CC(=O)NCC(=O)N[C@@H](Cc1ccccc1)C(=O)N1Cc2ccccc2C[C@H]1C(=O)N1CC2CCCCC2[C@H]1C(=O)NCC(=O)N[C@@H](CC(=O)O)C(=O)N[C@@H](CCCCN)C(=O)N1Cc2ccccc2C[C@H]1C(=O)N1CC2CCCCC2[C@H]1C(=O)NCC(=O)N[C@@H](Cc1ccccc1)C(=O)N1Cc2ccccc2C[C@H]1C(=O)N1CC2CCCCC2[C@H]1C(=O)NCC(=O)N[C@@H](CC(=O)O)C(=O)N[C@@H](CCCCN)C(=O)N1Cc2ccccc2C[C@H]1C(=O)N[C@@H](CCCCN)C(=O)N[C@@H](CCCCN)C(=O)N[C@@H](CCCCN)C(=O)N[C@@H](CCCCN)C(N)=O (stereo partly specified) (Ac-GF[Tic][Pro(3ξ,4ξ-(CH2)4)]GDK[Tic][Pro(3ξ,4ξ-(CH2)4)]GF[Tic][Pro(3ξ,4ξ-(CH2)4)]GDK[Tic]KKKK-NH2) | 50 (≈ 18.7 µM) | 12.5 (≈ 4.68 µM) | > 100 | > 100 | > 100 | > 100 | 100 (≈ 37.4 µM) | 100 (≈ 37.4 µM) | 25 (≈ 9.36 µM) | 12.5 (≈ 4.68 µM) | > 100 | > 100 |
| CC(=O)NCCCC(=O)N[C@@H](Cc1ccccc1)C(=O)N1Cc2ccccc2C[C@H]1C(=O)N1CC2CCCCC2[C@H]1C(=O)NCCCC(=O)N[C@@H](CCCCN)C(=O)N1Cc2ccccc2C[C@H]1C(=O)N1CC2CCCCC2[C@H]1C(=O)NCCCC(=O)N[C@@H](Cc1ccccc1)C(=O)N1Cc2ccccc2C[C@H]1C(=O)N1CC2CCCCC2[C@H]1C(=O)NCCCC(=O)N[C@@H](CCCCN)C(=O)N1Cc2ccccc2C[C@H]1C(=O)N[C@@H](CCCCN)C(=O)N[C@@H](CCCCN)C(=O)N[C@@H](CCCCN)C(=O)N[C@@H](CCCCN)C(N)=O (stereo partly specified) (Ac-[GABA]F[Tic][Pro(3ξ,4ξ-(CH2)4)][GABA]K[Tic][Pro(3ξ,4ξ-(CH2)4)][GABA]F[Tic][Pro(3ξ,4ξ-(CH2)4)][GABA]K[Tic]KKKK-NH2) | 25 (≈ 9.79 µM) | 12.5 (≈ 4.9 µM) | > 100 | > 100 | > 100 | > 100 | 100 (≈ 39.2 µM) | 100 (≈ 39.2 µM) | 25 (≈ 9.79 µM) | 12.5 (≈ 4.9 µM) | > 100 | > 100 |
| CC(=O)NCC(=O)N[C@@H](Cc1ccccc1)C(=O)N1Cc2ccccc2C[C@H]1C(=O)N1CC2CCCCC2[C@H]1C(=O)NCC(=O)N[C@@H](CCCCN)C(=O)N1Cc2ccccc2C[C@H]1C(=O)N1CC2CCCCC2[C@H]1C(=O)NCC(=O)N[C@@H](Cc1ccccc1)C(=O)N1Cc2ccccc2C[C@H]1C(=O)N1CC2CCCCC2[C@H]1C(=O)NCC(=O)N[C@@H](CCCCN)C(=O)N1Cc2ccccc2C[C@H]1C(=O)CCN[C@@H](CCCCN)C(=O)N[C@@H](CCCCN)C(=O)N[C@@H](CCCCN)C(=O)N[C@@H](CCCCN)C(N)=O (stereo partly specified) (Ac-GF[Tic][Pro(3ξ,4ξ-(CH2)4)]GK[Tic][Pro(3ξ,4ξ-(CH2)4)]GF[Tic][Pro(3ξ,4ξ-(CH2)4)]GK-X6) | 50 (≈ 20.3 µM) | 12.5 (≈ 5.06 µM) | > 100 | > 100 | > 100 | > 100 | > 100 | > 100 | 25 (≈ 10.1 µM) | 12.5 (≈ 5.06 µM) | > 100 | > 100 |
| CC(C)C[C@H](NC(=O)[C@@H](N)CCCCN)C(=O)N1Cc2ccccc2C[C@H]1C(=O)N1CC2CCCCC2[C@H]1C(=O)N[C@@H](CCCCN)C(=O)N1Cc2ccccc2C[C@H]1C(=O)N1CC2CCCCC2[C@H]1C(=O)N[C@@H](Cc1ccccc1)C(=O)N1Cc2ccccc2C[C@H]1C(=O)N1CC2CCCCC2[C@H]1C(=O)N[C@@H](CCCCN)C(=O)N1Cc2ccccc2C[C@H]1C(=O)N1CC2CCCCC2[C@H]1C(=O)N[C@@H](Cc1ccccc1)C(=O)N1Cc2ccccc2C[C@H]1C(=O)N1CC2CCCCC2[C@H]1C(=O)N[C@@H](CCCCN)C(=O)N1Cc2ccccc2C[C@H]1C(=O)N1CC2CCCCC2[C@H]1C(=O)N[C@@H](CCCCN)C(=O)N[C@@H](CCCNC(=N)N)C(N)=O (stereo partly specified) (H-KL[Tic][Pro(3ξ,4ξ-(CH2)4)]K[Tic][Pro(3ξ,4ξ-(CH2)4)]F[Tic][Pro(3ξ,4ξ-(CH2)4)]K[Tic][Pro(3ξ,4ξ-(CH2)4)]F[Tic][Pro(3ξ,4ξ-(CH2)4)]K[Tic][Pro(3ξ,4ξ-(CH2)4)]KR-NH2) | 25 (≈ 8.11 µM) | 12.5 (≈ 4.05 µM) | > 100 | > 100 | > 100 | > 100 | > 100 | > 100 | > 100 | 100 (≈ 32.4 µM) | 50 (≈ 16.2 µM) | 50 (≈ 16.2 µM) |
| CC(=O)NCCC(=O)N[C@@H](Cc1ccc(F)cc1)C(=O)N1Cc2ccccc2C[C@H]1C(=O)N1CC2CCCCC2[C@H]1C(=O)NCCC(=O)N[C@@H](CN)C(=O)N1Cc2ccccc2C[C@H]1C(=O)N1CC2CCCCC2[C@H]1C(=O)NCCC(=O)N[C@@H](Cc1ccc(F)cc1)C(=O)N1Cc2ccccc2C[C@H]1C(=O)N1CC2CCCCC2[C@H]1C(=O)NCCC(=O)N[C@@H](CN)C(=O)N1Cc2ccccc2C[C@H]1C(=O)N[C@@H](CN)C(=O)N[C@@H](CN)C(=O)N[C@@H](CN)C(=O)N[C@@H](CN)C(=O)NC(C)=O (stereo partly specified) (Ac-[βAla][Phe(4-F)][Tic][Pro(3ξ,4ξ-(CH2)4)][βAla][Dap][Tic][Pro(3ξ,4ξ-(CH2)4)][βAla][Phe(4-F)][Tic][Pro(3ξ,4ξ-(CH2)4)][βAla][Dap][Tic][Dap][Dap][Dap]-X1) | > 100 | 50 (≈ 21.5 µM) | 25 (≈ 10.8 µM) | 25 (≈ 10.8 µM) | 50 (≈ 21.5 µM) | 25 (≈ 10.8 µM) | 25 (≈ 10.8 µM) | 12.5 (≈ 5.38 µM) | 25 (≈ 10.8 µM) | 12.5 (≈ 5.38 µM) | > 100 | > 100 |
